In ChEMBL document CHEMBL3244122, “Symbiotic approach to drug design: antihypertensive beta-adrenergic blocking agents” (J Med Chem, 1979):

Legend:
Rattus norvegicus [1] = assay: Antihypertensive activity in spontaneously hypertensive Wistar-Okamoto rat assessed as duration of action at 5 mg/kg, po; format: functional
Rattus norvegicus [2] = assay: Antihypertensive activity in spontaneously hypertensive Wistar-Okamoto rat assessed as duration of action at 20 mg/kg, po; format: functional
Canis familiaris [3] = assay: Vasodilatory activity in anesthetized dog assessed as increase in iliac blood flow […] ia; format: functional, Canis lupus familiaris, Artery
Canis familiaris [4] = assay: Vasodilatory activity in anesthetized dog assessed as increase in iliac blood flow […] measured after 800 ug/kg, iv beta-adrenergic receptor blocker timolol administration; format: functional, Canis lupus familiaris, Artery
Canis familiaris [5] = assay: In vivo beta-adrenergic receptor blockade in iv dosed anesthetized dog assessed as inhibition of isoproterenol-induced hypotension; format: functional; details: Canis lupus familiaris
Canis familiaris [6] = assay: In vivo beta-adrenergic receptor blockade in iv dosed anesthetized dog assessed as inhibition of isoproterenol-induced tachycardia; format: functional; details: Canis lupus familiaris
Rattus norvegicus [7] = assay: Antihypertensive activity in spontaneously hypertensive Wistar-Okamoto rat assessed as maximal fall in mean arterial pressure at 1.25 mg/kg, po; format: functional, Artery
Rattus norvegicus [8] = assay: Antihypertensive activity in spontaneously hypertensive Wistar-Okamoto rat assessed as maximal fall in mean arterial pressure at 5 mg/kg, po; format: functional, Artery
Rattus norvegicus [9] = assay: Antihypertensive activity in spontaneously hypertensive Wistar-Okamoto rat assessed as maximal fall in mean arterial pressure at 20 mg/kg, po; format: functional, Artery
Rattus norvegicus [10] = assay: Antihypertensive activity in spontaneously hypertensive Wistar-Okamoto rat assessed as duration of action at 0.312 mg/kg, po; format: functional
Rattus norvegicus [11] = assay: Antihypertensive activity in spontaneously hypertensive Wistar-Okamoto rat assessed as maximal fall in mean arterial pressure at 0.312 mg/kg, po; format: functional, Artery
Rattus norvegicus [12] = assay: Antihypertensive activity in spontaneously hypertensive Wistar-Okamoto rat assessed as maximal fall in mean arterial pressure at 0.625 mg/kg, po; format: functional, Artery
Canis familiaris [13] = assay: Vasodilatory activity in anesthetized dog assessed as increase in iliac blood flow […] measured after 2000 ug/kg, iv beta-adrenergic receptor blocker timolol administration; format: functional, Canis lupus familiaris, Artery
Rattus norvegicus [14] = assay: Antihypertensive activity in spontaneously hypertensive Wistar-Okamoto rat assessed as duration of action at 1.25 mg/kg, po; format: functional
Rattus norvegicus [15] = assay: Antihypertensive activity in spontaneously hypertensive Wistar-Okamoto rat assessed as maximal fall in mean arterial pressure at 20 mg/kg, ip; format: functional, Artery; details: route intraperitoneal
Rattus norvegicus [16] = assay: Antihypertensive activity in spontaneously hypertensive Wistar-Okamoto rat assessed as duration of action at 1 mg/kg, po; format: functional
Rattus norvegicus [17] = assay: Antihypertensive activity in spontaneously hypertensive Wistar-Okamoto rat assessed as duration of action at 2 mg/kg, po; format: functional
Rattus norvegicus [18] = assay: Antihypertensive activity in spontaneously hypertensive Wistar-Okamoto rat assessed as maximal fall in mean arterial pressure at 1 mg/kg, po; format: functional, Artery
Rattus norvegicus [19] = assay: Antihypertensive activity in spontaneously hypertensive Wistar-Okamoto rat assessed as maximal fall in mean arterial pressure at 2 mg/kg, po; format: functional, Artery
Rattus norvegicus [20] = assay: Antihypertensive activity in spontaneously hypertensive Wistar-Okamoto rat assessed as duration of action at 20 mg/kg, ip; format: functional; details: route intraperitoneal
Rattus norvegicus [21] = assay: Antihypertensive activity in spontaneously hypertensive Wistar-Okamoto rat assessed as maximal fall in mean arterial pressure at 5 mg/kg, ip; format: functional, Artery; details: route intraperitoneal
Rattus norvegicus [22] = assay: Antihypertensive activity in spontaneously hypertensive Wistar-Okamoto rat assessed as duration of action at 5 mg/kg, ip; format: functional; details: route intraperitoneal
Rattus norvegicus [23] = assay: Antihypertensive activity in spontaneously hypertensive Wistar-Okamoto rat assessed as maximal fall in mean arterial pressure at 0.078 mg/kg, po; format: functional, Artery
Canis familiaris [24] = assay: Vasodilatory activity in anesthetized dog assessed as increase in iliac blood flow at 250 mg, ia measured after 800 ug/kg, iv beta-adrenergic receptor blocker timolol administration; format: functional, Canis lupus familiaris, Artery
Canis familiaris [25] = assay: Vasodilatory activity in anesthetized dog assessed as increase in iliac blood flow at 64 mg, ia measured after 800 ug/kg, iv beta-adrenergic receptor blocker timolol administration; format: functional, Canis lupus familiaris, Artery
Canis familiaris [26] = assay: Vasodilatory activity in anesthetized dog assessed as increase in iliac blood flow […] measured after 320 ug/kg, iv beta-adrenergic receptor blocker timolol administration; format: functional, Canis lupus familiaris, Artery
Rattus norvegicus [27] = assay: Antihypertensive activity in spontaneously hypertensive Wistar-Okamoto rat assessed as duration of action at 8 mg/kg, po; format: functional
Canis familiaris [28] = assay: Vasodilatory activity in anesthetized dog assessed as increase in iliac blood flow at 800 mg, ia; format: functional, Canis lupus familiaris, Artery
Canis familiaris [29] = assay: Vasodilatory activity in anesthetized dog assessed as increase in iliac blood flow at 800 mg, ia measured after 320 ug/kg, iv beta-adrenergic receptor blocker timolol administration; format: functional, Canis lupus familiaris, Artery
Canis familiaris [30] = assay: Vasodilatory activity in anesthetized dog assessed as increase in iliac blood flow at 800 mg, ia measured after 800 ug/kg, iv beta-adrenergic receptor blocker timolol administration; format: functional, Canis lupus familiaris, Artery
Rattus norvegicus [31] = assay: Antihypertensive activity in spontaneously hypertensive Wistar-Okamoto rat assessed as maximal fall in mean arterial pressure at 8 mg/kg, po; format: functional, Artery
Rattus norvegicus [32] = assay: Antihypertensive activity in po dosed spontaneously hypertensive Wistar-Okamoto rat assessed as maximal fall in mean arterial pressure; format: functional, organism-based; details: Artery
Oryctolagus cuniculus = assay: Toxicity in rabbit assessed as teratogenicity measured after high drug dose administration; format: organism-based; details: in vivo
Canis familiaris [33] = assay: Vasodilatory activity in anesthetized dog assessed as increase in iliac blood flow at 250 mg, ia measured after 2000 ug/kg, iv beta-adrenergic receptor blocker timolol administration; format: functional, Canis lupus familiaris, Artery
Canis familiaris [34] = assay: Vasodilatory activity in anesthetized dog assessed as increase in iliac blood flow at 64 mg, ia measured after 2000 ug/kg, iv beta-adrenergic receptor blocker timolol administration; format: functional, Canis lupus familiaris, Artery

Structure (SMILES) | Time (Rattus norvegicus [2]) [h] | Activity (Canis familiaris [3]) [mL/min] | ED50 (Canis familiaris [5]) [mg/kg] | ED50 (Canis familiaris [6]) [mg/kg] | Activity (Rattus norvegicus [7]) [mmHg] | Activity (Rattus norvegicus [8]) [mmHg] | Activity (Rattus norvegicus [9]) [mmHg] | Activity (Canis familiaris [13]) [mL/min] | other results
CC(C)(C)NCC(O)COc1cc(C#N)ccn1 (stereo unspecified) | 4 | 35 | > 0.03 | 0.03 | 15 | 30 | 55 | – | Time (Rattus norvegicus [1]): 2 h; Activity (Canis familiaris [4]): 18 mL/min
Cc1cc(OCC(O)CNC(C)(C)C)cc(C)c1-c1ncc(C(F)(F)F)[nH]1 (stereo unspecified) | 18 | 7 | – | – | – | 19 | 30 | – | Time (Rattus norvegicus [1]): 4 h
CC(C)(C)NC[C@H](O)COc1nsnc1N1CCOCC1 [TIMOLOL] | – | – | 0.0013 | 0.0024 | -1 | – | – | – | Time (Rattus norvegicus [10]): 8 h; Activity (Rattus norvegicus [11]): 32 mmHg; Activity (Rattus norvegicus [12]): 0 mmHg
CC(C)(C)NCC(O)COc1ccc(C#N)cn1 (stereo unspecified) | – | -13 | – | – | – | – | 15 | 19 | Activity (Canis familiaris [4]): -1 mL/min
CC(C)NCC(O)COc1cccc2ccccc12 (stereo unspecified) [PROPRANOLOL] | 12 | – | 0.019 | 0.051 | 12 | 7 | 14 | – | Time (Rattus norvegicus [14]): 8 h; Time (Rattus norvegicus [1]): <8 h
CC(C)(C)NCC(O)COc1ccc(-c2ncc(-c3ccccc3)[nH]2)cc1 (stereo unspecified) | >24 | 46 | 0.083 | 0.038 | 20 | 30 | 54 | 42 | Time (Rattus norvegicus [1]): 4 h
CC(C)(C)NC[C@H](O)COc1ccc(-c2ncc[nH]2)cc1 | – | – | > 1 | 0.067 | – | – | – | – | –
CC(C)(C)NCC(O)COc1ccc(-c2ncc(C(F)(F)F)[nH]2)cn1 (stereo unspecified) | >7 | 103 | 0.058 | 0.0025 | – | – | – | – | Activity (Rattus norvegicus [15]): 40 mmHg; Activity (Canis familiaris [4]): 38 mL/min
NNc1nncc2ccccc12 [HYDRALAZINE] | – | 66 | – | – | – | – | – | – | Time (Rattus norvegicus [16]): 6 h; Time (Rattus norvegicus [17]): >7 h; Activity (Rattus norvegicus [18]): 30 mmHg; Activity (Rattus norvegicus [19]): 40 mmHg
CC(C)(C)NCC(O)COc1ccccn1 (stereo unspecified) | – | – | 0.07 | 0.01 | – | 10 | 33 | 30 | –
CC(C)NCC(O)COc1ncccc1C#N (stereo unspecified) | 4 | 59 | 0.03 | 0.005 | – | – | 40 | 48 | Activity (Rattus norvegicus [15]): 59 mmHg; Time (Rattus norvegicus [20]): 8 h; Activity (Rattus norvegicus [21]): 26 mmHg; Time (Rattus norvegicus [22]): 2 h
CC(C)(C)NCC(O)COc1ccc(-c2nc(C(F)(F)F)c[nH]2)cc1 (stereo unspecified) | – | 79 | 0.036 | 0.009 | 36 | 49 | – | 15 | Time (Rattus norvegicus [14]): 18 h; Time (Rattus norvegicus [1]): 18 h; Time (Rattus norvegicus [10]): 7 h; Activity (Rattus norvegicus [11]): 21 mmHg
Cc1ccc(C#N)c(OCC(O)CNC(C)(C)C)n1 (stereo unspecified) | – | 70 | < 0.01 | < 0.01 | – | 5 | – | 43 | –
CC(C)(C)NC[C@H](O)COc1ncccc1C#N.Cl | – | 98 | 0.0052 | 0.0015 | 47 | – | – | 90 | Activity (Rattus norvegicus [23]): 19 mmHg; Time (Rattus norvegicus [14]): >12 h; Time (Rattus norvegicus [10]): 1 h; Activity (Canis familiaris [24]): 62 mL/min; Activity (Canis familiaris [25]): 38 mL/min; Activity (Rattus norvegicus [11]): 30 mmHg
Cc1c[nH]c(-c2ccc(OCC(O)CNC(C)(C)C)cc2)n1 (stereo unspecified) | 8 | 60 | – | – | 24 | 19 | 41 | – | Time (Rattus norvegicus [14]): <6 h; Time (Rattus norvegicus [1]): <8 h; Activity (Canis familiaris [26]): 33 mL/min
Cc1cc(C)c(C#N)c(OCC(O)CNC(C)(C)C)n1 (stereo unspecified) | 8 | 33 | 0.0026 | 0.0015 | – | 16 | 21 | 3 | –
CN(C)CCOc1ncccc1C#N | – | 100 | – | – | – | – | – | 72 | Activity (Rattus norvegicus [15]): 49 mmHg; Time (Rattus norvegicus [20]): 1 h
CC(C)(C)NCC(O)COc1ncccc1C(F)(F)F (stereo unspecified) | 18 | 100 | < 0.001 | < 0.001 | 28 | – | 36 | 145 | Time (Rattus norvegicus [14]): 4 h; Activity (Canis familiaris [24]): 60 mL/min; Activity (Canis familiaris [25]): 41 mL/min; Activity (Rattus norvegicus [11]): 15 mmHg
CC(C)(C)NCC(O)COc1ccc(-c2ncc[nH]2)cc1 (stereo unspecified) | – | 36 | – | – | – | – | – | – | Activity (Rattus norvegicus [15]): 33 mmHg; Time (Rattus norvegicus [20]): 1 h; Activity (Canis familiaris [26]): 31 mL/min
CC(C)(C)NCC(O)COc1ncccc1S(C)(=O)=O (stereo unspecified) | – | 10 | – | – | – | 12 | 13 | – | Activity (Canis familiaris [4]): 8 mL/min
Cc1cnc(-c2ccc(OC[C@@H](O)CNC(C)(C)C)cc2)[nH]1 | – | – | > 1 | 0.03 | – | – | – | – | –
FC(F)(F)c1cnc(-c2cccnc2)[nH]1 | – | – | – | – | – | – | – | – | Time (Rattus norvegicus [16]): 2 h; Time (Rattus norvegicus [17]): 6 h; Time (Rattus norvegicus [27]): >6 h; Activity (Canis familiaris [28]): 93 mL/min; Activity (Canis familiaris [29]): 99 mL/min; Activity (Canis familiaris [30]): 76 mL/min; Activity (Rattus norvegicus [18]): 21 mmHg; Activity (Rattus norvegicus [19]): 39 mmHg; Activity (Rattus norvegicus [31]): 48 mmHg
CC(C)(C)NCC(O)COc1ncccc1C#N (stereo unspecified) | – | – | – | – | – | – | – | – | inhibition (Rattus norvegicus [32]): Dose-dependent effect; Activity (Oryctolagus cuniculus): Toxic
CC(C)(C)NC[C@@H](O)COc1ncccc1C#N.Cl | 4 | – | 0.1 | 0.1 | 22 | 27 | 40 | 82 | Time (Rattus norvegicus [1]): 1 h; Activity (Canis familiaris [33]): 22 mL/min; Activity (Canis familiaris [34]): 13 mL/min
